Measured values: patent US20240352494A1, “HETEROLOGOUS PRODUCTION OF […] YEASTS” (ADAMA CHILE SA, priority 2021, published 2024)

System: A. thaliana seedlings
Assay: hypocotyl length assay (inhibition of hypocotyl elongation)
Type: in vivo, A. thaliana Col-0
Conditions: tZ standard at 0.14, 0.28 and 0.56 mg/L (mean of all treatments, no significant difference between them); seedlings grown in darkness, measured after 8 days
Description: The bioactivity of the produced cytokinins was tested in A. thaliana by hypocotyl length assay. This assay is based on the capacity of cytokinins to inhibit hypocotyl elongation in A. thaliana seedlings (Cary et al., 1995, Plant Physiol., 107 (4): 1075-1082). Seeds of A. thaliana Col-0 were surface sterilized, sown on 0.5× Murashige and Skoog (MS) medium (Murashige and Skoog, 1962, Physiol. Plant., 15(13):473-497) (0.7% agar) without sucrose, and stratified in darkness for 3 days at 4° C. Seedlings were grown in complete darkness in a growth cabinet at 21°° C. Hypocotyl lengths were determined after 8 days of growth, and at least 15 seedlings were measured for each treatment.

## C/C(=C\CNc1ncnc2nc[nH]c12)CO [tZ standard, trans-zeatin]
  mean reduction in hypocotyl lengths: 58%
